Reference: PubChem BioAssay AID1963973 (Molecular Pharmacology Branch, DTP, NCI, 2024)

Tested on: 883617-216-R-J1-PDC tumor spheroids, viability
Assay: Anticancer human tumor 883617-216-R-J1-PDC patient-derived bladder carcinoma cell line growth inhibition [PI3K]
Settings: spheroids with HUVEC and MSC; for viability, T/C: stronger effect = lower value; active means viability on the fitted dose curve at most 10% of control; inactive means the rest
Text: Combinatorial screen of targeted agents with the PI3K inhibitors inavolisib, alpelisib, duvelisib, and copanlisib in multi-cell type tumor spheroids
A high-throughput screen of multi-cell type tumor spheroids was designed to identify active combinations of targeted small molecules and PI3K pathway inhibitors. Complex spheroids include a stromal component modeled by human endothelial cells (HUVEC) and fibroblasts modeled by human mesenchymal stem cells (MSCs). The concentration ranges selected for each drug and investigational agent were based upon clinically achievable concentrations if the clinical Cmax of the agent was known.
Compounds. The drugs and investigational agents: inavolisib (NSC800729), alpelisib (NSC765974), duvelisib (NSC772469), copanlisib (NSC816437), ipatasertib (NSC767898), afuresertib (NSC778305), talazoparib (NSC767125), sapanisertib (NSC764658), selumetinib (NSC741078), tovorafenib (DAY101, NSC766906), vemurafenib (NSC761431), ravoxertinib (NSC781343), sotorasib (NSC818433), MRTX1133 (NSC 836407), abemaciclib (NSC 768073), palbociclib (NSC758247), venetoclax (NSC 766270), SY5609 (NSC837396), enzalutamide (NSC755605), and darolutamide (NSC825331), were obtained from the National Cancer Institute (NCI) Developmental Therapeutics Program Chemical Repository. The FDA-approved anticancer drug set is available from the NCI Developmental Therapeutics Program. […] The stock solutions were prepared in dimethyl sulfoxide (DMSO, Sigma-Aldrich, St. Louis, MO, cat. D2650) at 800-fold the tested concentration and stored at -70 degrees C prior to their use. All drugs and investigational agents were tested over a range starting from a high concentration at or near the clinical Cmax and decreasing in half-log increments. If the clinical Cmax for an agent had not been determined, the highest concentration tested was 10 microM.
Cell Culture. All cells were maintained in an incubator at 37 degrees C and 5% CO2 with 95% humidity. The PDC lines were cultured according to standard operating procedures established by the NCI PDMR (https://pdmr.cancer.gov/sops/default.htm). All PDCs were thawed and cultured in Matrigel-coated flasks prepared with a working solution of 1X Ham's F-12 nutrient mix, without supplementation (Invitrogen, Waltham, MA, cat. 11765054), 100 U/mL penicillin-streptomycin (Invitrogen, cat. 15140122), and 2.5% Matrigel (Corning Inc., Corning, NY, cat. 354248) for the first three passages. The 354836-022-R-J1-PDC, 475296-252-R-J1-PDC, and 997726-040-R-J2-PDC lines were cultured in 6A media, which includes advanced DMEM/F-12 (Thermo Fisher Scientific, cat. 12634028), 10 mM HEPES (Thermo Fisher Scientific, cat. 15630080), 1X GlutaMAX supplement (Thermo Fisher Scientific, cat. 35050061), 0.1 mg/mL primocin (InvivoGen, San Diego, CA, cat. ant-pm-2), 10% defined fetal bovine serum, heat inactivated (HyClone Laboratories Inc., Logan, UT, cat. SH30070.03HI), 50% L-WRN conditioned media (ATCC, cat. CRL-3276), 1.25 mM N-Acetyl-L-cysteine (Sigma-Aldrich, cat. A9165), 10 mM nicotinamide (Sigma-Aldrich, cat. N0636), 1X B-27 supplement (Thermo Fisher Scientific, cat. 17504044), 1X N-2 supplement (Thermo Fisher Scientific, cat. 17502048), and 10 microM Y-27632 dihydrochloride (Tocris Bioscience, Bristol, United Kingdom, cat. 1254). The 624824-186-R-J2-PDC line was cultured in 6C/Colon 1B media, which includes all 6A media components plus 50 ng/mL human EGF recombinant protein (Thermo Fisher Scientific, cat. PHG0311). […]

[1] = curve of first compound, second compound 0.0316 µM
[2] = curve of first compound, second compound 0.1 µM
[3] = curve of first compound, second compound 0.316 µM
[4] = curve of first compound, second compound 1 µM
[5] = second compound 0.0316 µM, first compound 0.0316 µM
[6] = second compound 0.0316 µM, first compound 0.1 µM
[7] = second compound 0.0316 µM, first compound 0.316 µM
[8] = second compound 0.0316 µM, first compound 1 µM
[9] = second compound 0.0316 µM, first compound 3.16 µM
[10] = second compound 0.0316 µM, first compound 10 µM
[11] = second compound 0.1 µM, first compound 0.0316 µM
[12] = second compound 0.1 µM, first compound 0.1 µM
[13] = second compound 0.1 µM, first compound 0.316 µM
[14] = second compound 0.1 µM, first compound 1 µM
[15] = second compound 0.1 µM, first compound 3.16 µM
[16] = second compound 0.1 µM, first compound 10 µM
[17] = second compound 0.316 µM, first compound 0.0316 µM
[18] = second compound 0.316 µM, first compound 0.1 µM
[19] = second compound 0.316 µM, first compound 0.316 µM
[20] = second compound 0.316 µM, first compound 1 µM
[21] = second compound 0.316 µM, first compound 3.16 µM
[22] = second compound 0.316 µM, first compound 10 µM
[23] = second compound 1 µM, first compound 0.0316 µM
[24] = second compound 1 µM, first compound 0.1 µM
[25] = second compound 1 µM, first compound 0.316 µM
[26] = second compound 1 µM, first compound 1 µM
[27] = second compound 1 µM, first compound 3.16 µM
[28] = second compound 1 µM, first compound 10 µM
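Further: spheroids exposed to agents for 7 days before the viability read.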

Cn1ncc(Cl)c1-c1cc(C(=O)NC(CN)Cc2cccc(F)c2)sc1Cl (stereo unspecified) + COc1c(OCCCN2CCOCC2)ccc2c3n(c(=NC(=O)c4cnc(N)nc4)nc12)CCN3
241 nM: IC50 (curve of first compound, second compound 0.01 µM)
inactive: viability, T/C (second compound 0.00316 µM, first compound 0.0316 µM) 83.1% | viability, T/C (second compound 0.00316 µM, first compound 0.1 µM) 85.4% | viability, T/C (second compound 0.00316 µM, first compound 0.316 µM) 59% | viability, T/C (second compound 0.00316 µM, first compound 1 µM) 29.6% | viability, T/C (second compound 0.00316 µM, first compound 3.16 µM) 13.9% | viability, T/C (second compound 0.01 µM, first compound 0.0316 µM) 66% | viability, T/C (second compound 0.01 µM, first compound 0.1 µM) 61.6% | viability, T/C (second compound 0.01 µM, first compound 0.316 µM) 45.4% | viability, T/C (second compound 0.01 µM, first compound 1 µM) 28.1% | viability, T/C (second compound 0.01 µM, first compound 3.16 µM) 10% | viability, T/C [5] 33.8% | viability, T/C [6] 34.7% | viability, T/C [7] 33.2% | viability, T/C [8] 15.1% | viability, T/C [9] 8.09% | viability, T/C [11] 17.8% | viability, T/C [12] 12.7% | viability, T/C [13] 10.8%
473 nM: IC50 (curve of first compound, second compound 0.00316 µM)
< 31.6 nM: IC50 [1] | IC50 [2] | IC50 [3] | IC50 [4]
active: viability, T/C (second compound 0.00316 µM, first compound 10 µM) 5.61% | viability, T/C (second compound 0.01 µM, first compound 10 µM) 4.83% | viability, T/C [10] 3.75% | viability, T/C [14] 8.94% | viability, T/C [15] 5.15% | viability, T/C [16] 2.08% | viability, T/C [17] 6.38% | viability, T/C [18] 4.23% | viability, T/C [19] 5.38% | viability, T/C [20] 5.78% | viability, T/C [21] 2.33% | viability, T/C [22] 1.23% | viability, T/C [23] 3.15% | viability, T/C [24] 3.32% | viability, T/C [25] 2.66% | viability, T/C [26] 2.93% | viability, T/C [27] 2.39% | viability, T/C [28] 0.58%

CC(Cn1ccc(-c2ccc(C#N)c(Cl)c2)n1)NC(=O)c1cc(C(C)O)[nH]n1 (stereo unspecified) + Cc1nc(NC(=O)N2CCCC2C(N)=O)sc1-c1ccnc(C(C)(C)C(F)(F)F)c1
active: viability, T/C (second compound 10 µM, first compound 0.0316 µM) 6.67% | viability, T/C (second compound 10 µM, first compound 0.1 µM) 7.22% | viability, T/C (second compound 10 µM, first compound 0.316 µM) 6.48% | viability, T/C (second compound 10 µM, first compound 1 µM) 6.6% | viability, T/C (second compound 10 µM, first compound 3.16 µM) 9.29% | viability, T/C (second compound 10 µM, first compound 10 µM) 7.26%
< 31.6 nM: IC50 [3] | IC50 [4] | IC50 (curve of first compound, second compound 3.16 µM) | IC50 (curve of first compound, second compound 10 µM)
> 10000 nM: IC50 [1] | IC50 [2]
inactive: viability, T/C [5] 86.2% | viability, T/C [6] 77.4% | viability, T/C [7] 85.3% | viability, T/C [8] 101% | viability, T/C [9] 100% | viability, T/C [10] 93.8% | viability, T/C [11] 73.8% | viability, T/C [12] 60.6% | viability, T/C [13] 67.9% | viability, T/C [14] 78.9% | viability, T/C [15] 70% | viability, T/C [16] 67.4% | viability, T/C [17] 45.4% | viability, T/C [18] 40.1% | viability, T/C [19] 50.6% | viability, T/C [20] 42.5% | viability, T/C [21] 55% | viability, T/C [22] 55.9% | viability, T/C [23] 30.8% | viability, T/C [24] 31% | viability, T/C [25] 28.8% | viability, T/C [26] 24.7% | viability, T/C [27] 28.8% | viability, T/C [28] 28% | viability, T/C (second compound 3.16 µM, first compound 0.0316 µM) 13% | viability, T/C (second compound 3.16 µM, first compound 0.1 µM) 15.4% | viability, T/C (second compound 3.16 µM, first compound 0.316 µM) 15.5% | viability, T/C (second compound 3.16 µM, first compound 1 µM) 15.3% | viability, T/C (second compound 3.16 µM, first compound 3.16 µM) 16.2% | viability, T/C (second compound 3.16 µM, first compound 10 µM) 15.3%

Cc1nc(NC(=O)N2CCCC2C(N)=O)sc1-c1ccnc(C(C)(C)C(F)(F)F)c1 (stereo unspecified)
inactive: viability, T/C (compound 0.0316 µM) 92.1% [middle of 8 runs] | viability, T/C (compound 0.1 µM) 74.7% [middle of 8 runs] | viability, T/C (compound 0.316 µM) 49.1% [middle of 8 runs] | viability, T/C (compound 1 µM) 28.3% [middle of 8 runs] | viability, T/C (compound 3.16 µM) 12.5% [middle of 8 runs]
7.52% [middle of 8 runs]: viability, T/C (compound 10 µM)
316 nM [middle of 8 runs]: IC50 (compound alone, run of 04/24/2023)
